Measurements: patent US9481676B2, “Azepino[4,5-B]indoles and methods of use” (Medivation Technologies, Inc., priority 2008, dated 2016)

Key:
[1] = target: T1, human recombinant adrenergic α1D receptor (Homo sapiens, UniProt P25100); test: Adrenergic alpha1D radioligand binding ([3H]Prozosin); settings: compound at 1 μM; read-out: Adrenergic (1 μM) α1D, percent inhibition of specific binding
T1 construct: expressed in transfected cells; host or cells: HEK-293 cells
T1 sequence (P25100 1-572): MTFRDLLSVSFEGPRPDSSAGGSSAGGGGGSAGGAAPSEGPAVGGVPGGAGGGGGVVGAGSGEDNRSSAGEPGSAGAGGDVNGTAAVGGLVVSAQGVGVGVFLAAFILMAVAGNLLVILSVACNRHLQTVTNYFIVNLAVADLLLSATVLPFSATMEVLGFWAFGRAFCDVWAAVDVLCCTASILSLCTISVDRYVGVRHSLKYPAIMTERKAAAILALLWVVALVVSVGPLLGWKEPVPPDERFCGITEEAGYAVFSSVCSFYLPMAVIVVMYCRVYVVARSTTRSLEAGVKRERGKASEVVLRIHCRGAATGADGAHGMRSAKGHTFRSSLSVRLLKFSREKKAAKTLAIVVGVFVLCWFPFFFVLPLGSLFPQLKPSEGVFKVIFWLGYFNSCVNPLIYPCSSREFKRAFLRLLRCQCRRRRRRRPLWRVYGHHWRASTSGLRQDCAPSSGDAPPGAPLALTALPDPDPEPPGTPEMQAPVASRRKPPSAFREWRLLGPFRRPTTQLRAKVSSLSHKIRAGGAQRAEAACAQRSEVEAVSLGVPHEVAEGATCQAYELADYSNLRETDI
Protocol: To evaluate in radioligand binding assays the activity of compounds of the invention, human recombinant adrenergic α1D receptor expressed in human embryonic kidney (HEK-293) cells (Kenny, B. A. et al. Br. J. Pharmacol. 115(6):981, 1995) in a 50 mM Tris-HCl buffer, pH 7.4, was used. Compounds of invention were incubated with 0.6 nM [^3H]Prozosin for 60 min. at 25° C. Non-specific binding was estimated in the presence of 10 μM phentolamine. Receptor proteins were filtered and washed, the filters were then counted to determine [^3H]Prozosin specifically bound. Compounds were screened at 1 μM or lower, using 1% DMSO as vehicle. Biochemical assay results are presented as the percent inhibition of specific binding in Table 5.

[2] = target: T2, human recombinant adrenergic α2A receptor (Homo sapiens, UniProt P08913); test: Adrenergic alpha2A radioligand binding ([3H]MK-912); settings: compound at 1 μM; read-out: Adrenergic (1 μM) α2A, percent inhibition of specific binding
T2 construct: expressed in transfected cells; host or cells: insect Sf9 cells
T2 sequence (P08913 1-465): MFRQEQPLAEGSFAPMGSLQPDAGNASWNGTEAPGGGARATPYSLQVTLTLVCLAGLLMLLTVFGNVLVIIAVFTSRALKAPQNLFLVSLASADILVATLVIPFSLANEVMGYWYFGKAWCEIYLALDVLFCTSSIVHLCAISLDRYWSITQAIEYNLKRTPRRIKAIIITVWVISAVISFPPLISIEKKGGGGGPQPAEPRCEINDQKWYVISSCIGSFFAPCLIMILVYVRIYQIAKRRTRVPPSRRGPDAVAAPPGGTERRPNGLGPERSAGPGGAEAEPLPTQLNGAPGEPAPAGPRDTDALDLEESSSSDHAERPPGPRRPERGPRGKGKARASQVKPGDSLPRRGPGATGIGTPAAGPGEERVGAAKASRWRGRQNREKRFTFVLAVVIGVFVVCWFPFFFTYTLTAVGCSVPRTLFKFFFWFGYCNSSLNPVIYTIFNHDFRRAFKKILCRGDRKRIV
Protocol: To evaluate in radioligand binding assays the activity of compounds of the invention, human recombinant adrenergic α2A receptor expressed in insect Sf9 cells (Uhlen S et al. J Pharmacol Exp Ther. 271:1558, 1994) in a modified Tris-HCl buffer (50 mM Tris-HCl, pH 7.4, 12.5 mM MgCl2, 2 mM EDTA) was used. Compounds of invention were incubated with 1 nM [^3H]MK-912 for 60 min. at 25° C. MK912 is (2S-trans)-1,3,4,5′,6,6′,7,12b-octahydro-1′,3′-dimethyl-spiro[2 h-benzofuro [2,3-a]quinolizine-2,4′ (1′H)-pyrimidin]-2′ (3′H)-one hydrochloride Non-specific binding was estimated in the presence of 10 μM WB-4101 (2-(2,6-Dimethoxyphenoxyethyl)aminomethyl-1,4-benzodioxane hydrochloride). Receptor proteins were filtered and washed, the filters were then counted to determine [^3H]MK-912 specifically bound. Compounds were screened at 1 μM or lower, using 1% DMSO as vehicle. Biochemical assay results are presented as the percent inhibition of specific binding in Table 5.

[3] = target: T3, human recombinant dopamine D2L receptor (Homo sapiens, UniProt P14416); test: Dopamine D2L radioligand binding ([3H]Spiperone); settings: compound at 1 μM; read-out: Dopamine (1 μM) D2L, percent inhibition of specific binding
T3 construct: expressed in transfected cells; host or cells: CHO cells
Outline: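 Human recombinant D2L receptor from CHO cells, in Tris-HCl buffer pH 7.4 with ascorbic acid, BSA and 150 mM NaCl; compounds at 1 μM or lower (1% DMSO) incubated with 0.16 nM [3H]spiperone, 120 min, 25° C. Nonspecific binding by 10 μM haloperidol; filter counting; % inhibition of specific binding.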

[4] = target: T4, human recombinant histamine H2 receptor (Homo sapiens, UniProt P25021); test: Histamine H2 radioligand binding ([125I]Aminopotentidine); settings: compound at 1 μM; read-out: Histamine Binding (1 μM) H2, percent inhibition of specific binding
T4 construct: expressed in transfected cells; host or cells: CHO-K1 cells
Outline: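 Membranes from CHO-K1 cells expressing recombinant human H2 receptor, in 50 mM phosphate buffer pH 7.4, incubated with 0.1 nM [125I]aminopotentidine for 120 min at 25 °C; nonspecific binding defined with 3 μM tiotidine.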

T3 sequence (P14416 whole entry): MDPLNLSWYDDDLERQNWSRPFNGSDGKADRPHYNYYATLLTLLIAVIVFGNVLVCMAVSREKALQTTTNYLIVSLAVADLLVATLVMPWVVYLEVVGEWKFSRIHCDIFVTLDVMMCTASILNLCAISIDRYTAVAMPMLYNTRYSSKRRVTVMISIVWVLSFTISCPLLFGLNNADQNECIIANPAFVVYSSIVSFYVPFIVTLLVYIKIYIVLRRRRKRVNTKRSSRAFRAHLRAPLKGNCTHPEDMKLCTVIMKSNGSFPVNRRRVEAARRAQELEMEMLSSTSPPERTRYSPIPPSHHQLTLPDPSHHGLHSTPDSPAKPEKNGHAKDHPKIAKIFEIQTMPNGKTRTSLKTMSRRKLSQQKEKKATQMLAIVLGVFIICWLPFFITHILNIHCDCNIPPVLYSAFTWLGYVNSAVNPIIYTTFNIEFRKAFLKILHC
T4 sequence (P25021 whole entry): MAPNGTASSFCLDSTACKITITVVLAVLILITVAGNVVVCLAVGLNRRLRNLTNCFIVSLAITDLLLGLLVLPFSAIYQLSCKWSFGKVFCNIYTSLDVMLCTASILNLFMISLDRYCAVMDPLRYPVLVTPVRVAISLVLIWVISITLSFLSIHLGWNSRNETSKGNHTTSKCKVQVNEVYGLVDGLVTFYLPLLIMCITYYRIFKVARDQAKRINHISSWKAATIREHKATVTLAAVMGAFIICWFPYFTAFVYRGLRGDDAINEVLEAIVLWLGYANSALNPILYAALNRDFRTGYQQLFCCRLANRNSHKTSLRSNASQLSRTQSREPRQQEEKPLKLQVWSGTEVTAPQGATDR

Row | SMILES | inhibition at 1 µM [1] | inhibition at 1 µM [2] | inhibition at 1 µM [3] | inhibition at 1 µM [4]
1 | CN1CCc2c(n(CCc3ccccc3Cl)c3ccc(Cl)cc23)CC1 [Compound No. 29, 6-(2-chlorophenethyl)-9-chloro-1,2,3,4,5,6-hexahydro-3-methylazepino[4,5-b]indole] | 71% | 101% | 67% | 105%
2 | CN1CCc2c(n(/C=C/c3ccc(F)cc3)c3ccc(Cl)cc23)CC1 [Compound No. 234, (E)-9-chloro-6-(4-fluorostyryl)-3-methyl-1,2,3,4,5,6-hexahydroazepino[4,5-b]indole] | 97% | 98% | 71% | 92%
3 | CN1CCc2c(n(C#Cc3ccc(F)cc3)c3ccc(Cl)cc23)CC1 [Compound No. 281, 9-chloro-6-((4-fluorophenyl)ethynyl)-3-methyl-1,2,3,4,5,6-hexahydroazepino[4,5-b]indole] | 75% | 92% | 40% | 76%
4 | Cc1ccc2c(c1)c1c(n2CC(=O)NC2CCCCC2)CCN(C)CC1 [Compound No. 22, N-cyclohexyl-2-(2,3,4,5-tetrahydro-3,9-dimethylazepino[4,5-b]indol-6(1H)-yl)acetamide] | 1% | -14% | 0% | 5%
5 | Cc1ccc2c(c1)c1c(n2CCc2ccncc2)CCN(C)CC1 [Compound No. 6, 1,2,3,4,5,6-hexahydro-3,9-dimethyl-6-(2-(pyridin-4-yl)ethyl)azepino[4,5-b]indole] | 92% | 93% | 30% | 52%
6 | Cc1ccc2c(c1)c1c(n2CC(O)c2ccccc2)CCN(C)CC1 (stereo not drawn) [Compound No. 25, 2-(2,3,4,5-tetrahydro-3,9-dimethylazepino[4,5-b]indol-6(1H)-yl)-1-phenylethanol] | 96% | 100% | 43% | 47%
7 | COc1ccc(/C=C/n2c3c(c4cc(C)ccc42)CCN(C)CC3)c(F)c1 [Compound No. 230, (E)-6-(2-fluoro-4-methoxystyryl)-3,9-dimethyl-1,2,3,4,5,6-hexahydroazepino[4,5-b]indole] | 97% | 102% | 48% | 89%
8 | Cc1ccc(C(O)Cn2c3c(c4cc(Cl)ccc42)CCN(C)CC3)cc1 (stereo not drawn) [Compound No. 26, 2-(9-chloro-2,3,4,5-tetrahydro-3-methylazepino[4,5-b]indol-6(1H)-yl)-1-p-tolylethanol] | 94% | 99% | 65% | 84%
9 | COc1ccc(C(O)Cn2c3c(c4cc(Cl)ccc42)CCN(C)CC3)cc1F (stereo not drawn) [Compound No. 67, 2-(9-chloro-2,3,4,5-tetrahydro-3-methylazepino[4,5-b]indol-6(1H)-yl)-1-(3-fluoro-4-methoxyphenyl) ethanol] | 90% | 102% | 50% | 72%
10 | CN1CCc2c(n(CCc3ccncc3)c3ccc(Cl)cc23)CC1 [Compound No. 5, 9-chloro-1,2,3,4,5,6-hexahydro-3-methyl-6-(2-(pyridin-4-yl)ethyl)azepino[4,5-b]indole] | 88% | 97% | 34% | 62%
11 | Cc1ccc2c(c1)c1c(n2CC(=O)N(C)C2CCCCC2)CCN(C)CC1 [Compound No. 232, N-cyclohexyl-2-(3,9-dimethyl-2,3,4,5-tetrahydroazepino[4,5-b]indol-6(1H)-yl)-N-methylacetamide] | 29% | 90% | 8% | 22%
12 | Cc1ccc2c(c1)c1c(n2CC(O)c2ccc(C)nc2)CCN(C)CC1 (stereo not drawn) [Compound No. 23, 2-(2,3,4,5-tetrahydro-3,9-dimethylazepino[4,5-b]indol-6(1H)-yl)-1-(6-methylpyridin-3-yl)ethanol] | 17% | 42% | 4% | -3%
13 | Cc1ccc(CCn2c3c(c4cc(Cl)ccc42)CCN(C)CC3)cc1 [Compound No. 46, 9-chloro-3-methyl-6-(4-methylphenethyl)-1,2,3,4,5,6-hexahydroazepino[4,5-b]indole] | 88% | 100% | 79% | 89%
14 | Cc1ccc2c(c1)c1c(n2CCc2ccc(C(=O)O)nc2)CCN(C)CC1 [Compound No. 11, 5-(2-(2,3,4,5-tetrahydro-3,9-dimethylazepino[4,5-b]indol-6(1H)-yl)ethyl)pyridine-2-carboxylic acid] | 7% | 1% | -11% | 7%
15 | Cc1ccc2c(c1)c1c(n2/C=C/c2ccccc2F)CCN(C)CC1 [Compound No. 233, (E)-6-(2-fluorostyryl)-3,9-dimethyl-1,2,3,4,5,6-hexahydroazepino[4,5-b]indole] | 96% | 97% | 73% | 94%
16 | CN1CCc2c(n(CCc3ccccc3F)c3ccc(Cl)cc23)CC1 [Compound No. 61, 6-(2-fluorophenethyl)-9-chloro-1,2,3,4,5,6-hexahydro-3-methylazepino[4,5-b]indole] | -5% | 23% | 1% | 89%
17 | Cc1ccc2c(c1)c1c(n2CCc2ccccc2)CCN(C)CC1 [Compound No. 62, 1,2,3,4,5,6-hexahydro-3,9-dimethyl-6-phenethylazepino[4,5-b]indole] | 12% | 11% | 7% | 79%
18 | CN1CCc2c(n(CC(=O)N(C)C3CCCCC3)c3ccc(Cl)cc23)CC1 [Compound No. 74, 2-(9-chloro-2,3,4,5-tetrahydro-3-methylazepino[4,5-b]indol-6(1H)-yl)-N-cyclohexyl-N-methylacetamide] | 17% | 19% | -2% | 9%
